Data reported in ChEMBL document CHEMBL3351318, “Synthesis of novel 4-nitropyrrole-based semicarbazide and thiosemicarbazide hybrids with antimicrobial and anti-tubercular activity” (Bioorg Med Chem Lett, 2014).
In brackets after ≈: the same amount, converted by molar mass.

Legend:
Escherichia coli [1] = assay: Antimicrobial activity against Escherichia coli ATCC 25922 after 48 hrs by broth dilution technique; assay type: functional; settings: ATCC 25922, 48 h
Klebsiella pneumoniae = assay: Antimicrobial activity against Klebsiella pneumoniae after 48 hrs by broth dilution technique; assay type: functional
Staphylococcus aureus [2] = assay: Antimicrobial activity against methicillin-sensitive Staphylococcus aureus ATCC 35556 after 48 hrs by broth dilution technique; assay type: functional; settings: ATCC 35556, 48 h
Staphylococcus aureus [3] = assay: Antimicrobial activity against methicillin-resistant Staphylococcus aureus ATCC 43866 after 48 hrs by broth dilution technique; assay type: functional; settings: ATCC 43866, 48 h
Candida albicans [4] = assay: Antimicrobial activity against Candida albicans after 48 hrs by agar dilution method; assay type: functional
[5] = tested on: Mycobacterium tuberculosis; assay: Antitubercular activity against Mycobacterium tuberculosis H37Rv after 7 days by Resazurin micro titer assay; assay type: functional; settings: 168 h
Vero = assay: Cytotoxicity against African green monkey Vero cells assessed as reduction in cell viability after 72 hrs by MTT assay; assay type: cell-based; settings: Chlorocebus sabaeus
Candida albicans [6] = assay: Ratio of Amphotericin B MIC to compound MIC for Candida albicans after 48 hrs by broth dilution technique; assay type: functional
Staphylococcus aureus [7] = assay: Ratio of ciprofloxacin MIC to compound MIC for methicillin-resistant Staphylococcus aureus ATCC 43866 after 48 hrs by broth dilution technique; assay type: functional
Escherichia coli [8] = assay: Ratio of ciprofloxacin MIC to compound MIC for Escherichia coli ATCC 25922 after 48 hrs by broth dilution technique; assay type: functional
Staphylococcus aureus [9] = assay: Ratio of ciprofloxacin MIC to compound MIC for methicillin-sensitive Staphylococcus aureus ATCC 35556 after 48 hrs by broth dilution technique; assay type: functional

## Cn1cc([N+](=O)[O-])cc1C(=O)NNC(=S)NCc1ccccc1
Escherichia coli [1]
  MIC: 1.56 µg/mL (≈ 4.68 µM)
Klebsiella pneumoniae
  MIC: 3.12 µg/mL (≈ 9.37 µM)
Staphylococcus aureus [2]
  MIC: 0.78 µg/mL (≈ 2.34 µM)
Staphylococcus aureus [3]
  MIC: 1.56 µg/mL (≈ 4.68 µM)
Candida albicans [4]
  MIC: 1.56 µg/mL (≈ 4.68 µM)
[5]
  MIC: 31.9 µg/mL (≈ 95.7 µM)
Vero
  IC50: 239 µM
Candida albicans [6]
  Ratio: 2
Staphylococcus aureus [7]
  Ratio: 4

## O=C(NNC(=S)Nc1ccc(F)cc1)c1cc([N+](=O)[O-])c[nH]1
Escherichia coli [1]
  MIC: 1.56 µg/mL (≈ 4.83 µM)
Klebsiella pneumoniae
  MIC: 3.12 µg/mL (≈ 9.67 µM)
Staphylococcus aureus [2]
  MIC: 1.56 µg/mL (≈ 4.83 µM)
Staphylococcus aureus [3]
  MIC: 3.12 µg/mL (≈ 9.67 µM)
Candida albicans [4]
  MIC: 3.12 µg/mL (≈ 9.67 µM)
[5]
  MIC: 0.56 µg/mL (≈ 1.73 µM)
Vero
  IC50: 331 µM
Candida albicans [6]
  Ratio: 4

## O=C(NNC(=S)Nc1ccccc1F)c1cc([N+](=O)[O-])c[nH]1
Escherichia coli [1]
  MIC: 1.56 µg/mL (≈ 4.83 µM)
Klebsiella pneumoniae
  MIC: 3.12 µg/mL (≈ 9.67 µM)
Staphylococcus aureus [2]
  MIC: 1.56 µg/mL (≈ 4.83 µM)
Staphylococcus aureus [3]
  MIC: 3.12 µg/mL (≈ 9.67 µM)
Candida albicans [4]
  MIC: 3.12 µg/mL (≈ 9.67 µM)
[5]
  MIC: 0.82 µg/mL (≈ 2.54 µM)
Vero
  IC50: 471 µM
Candida albicans [6]
  Ratio: 4

## O=C(NNC(=S)Nc1ccc(Cl)cc1)c1cc([N+](=O)[O-])c[nH]1
Escherichia coli [1]
  MIC: 1.56 µg/mL (≈ 4.59 µM)
Klebsiella pneumoniae
  MIC: 3.12 µg/mL (≈ 9.2 µM)
Staphylococcus aureus [2]
  MIC: 1.56 µg/mL (≈ 4.59 µM)
Staphylococcus aureus [3]
  MIC: 3.12 µg/mL (≈ 9.2 µM)
Candida albicans [4]
  MIC: 3.12 µg/mL (≈ 9.2 µM)
[5]
  MIC: 1.3 µg/mL (≈ 3.83 µM)
Vero
  IC50: 191 µM
Candida albicans [6]
  Ratio: 4

## O=C(NNC(=S)NCCc1ccccc1)c1cc([N+](=O)[O-])c[nH]1
Escherichia coli [1]
  MIC: 3.12 µg/mL (≈ 9.37 µM)
Klebsiella pneumoniae
  MIC: 6.25 µg/mL (≈ 18.7 µM)
Staphylococcus aureus [2]
  MIC: 1.56 µg/mL (≈ 4.68 µM)
Staphylococcus aureus [3]
  MIC: 3.12 µg/mL (≈ 9.37 µM)
Candida albicans [4]
  MIC: 3.12 µg/mL (≈ 9.37 µM)
[5]
  MIC: 3.9 µg/mL (≈ 11.7 µM)
Vero
  IC50: 281 µM
Candida albicans [6]
  Ratio: 4

## O=C(NNC(=S)NCc1ccccc1)c1cc([N+](=O)[O-])c[nH]1
Escherichia coli [1]
  MIC: 3.12 µg/mL (≈ 9.79 µM)
Klebsiella pneumoniae
  MIC: 6.25 µg/mL (≈ 19.6 µM)
Staphylococcus aureus [2]
  MIC: 3.12 µg/mL (≈ 9.79 µM)
Staphylococcus aureus [3]
  MIC: 6.25 µg/mL (≈ 19.6 µM)
Candida albicans [4]
  MIC: 3.12 µg/mL (≈ 9.79 µM)
[5]
  MIC: 7.3 µg/mL (≈ 22.9 µM)
Vero
  IC50: 397 µM
Candida albicans [6]
  Ratio: 4

## Cn1cc([N+](=O)[O-])cc1C(=O)NNC(=S)Nc1ccc([N+](=O)[O-])cc1
Escherichia coli [1]
  MIC: 0.39 µg/mL (≈ 1.07 µM)
Klebsiella pneumoniae
  MIC: 1.56 µg/mL (≈ 4.28 µM)
Staphylococcus aureus [2]
  MIC: 0.195 µg/mL (≈ 0.535 µM)
Staphylococcus aureus [3]
  MIC: 0.39 µg/mL (≈ 1.07 µM)
Candida albicans [4]
  MIC: 0.78 µg/mL (≈ 2.14 µM)
[5]
  MIC: 53.8 µg/mL (≈ 148 µM)
Vero
  IC50: 395 µM
Escherichia coli [8]
  Ratio: 4
Candida albicans [6]
  Ratio: 4
Staphylococcus aureus [9]
  Ratio: 8
Staphylococcus aureus [7]
  Ratio: 8

## COc1ccc(NC(=S)NNC(=O)c2cc([N+](=O)[O-])cn2C)cc1
Escherichia coli [1]
  MIC: 0.39 µg/mL (≈ 1.12 µM)
Klebsiella pneumoniae
  MIC: 1.56 µg/mL (≈ 4.47 µM)
Staphylococcus aureus [2]
  MIC: 0.195 µg/mL (≈ 0.558 µM)
Staphylococcus aureus [3]
  MIC: 0.39 µg/mL (≈ 1.12 µM)
Candida albicans [4]
  MIC: 0.78 µg/mL (≈ 2.23 µM)
[5]
  MIC: 19.4 µg/mL (≈ 55.5 µM)
Vero
  IC50: 184 µM
Escherichia coli [8]
  Ratio: 4
Candida albicans [6]
  Ratio: 4
Staphylococcus aureus [9]
  Ratio: 8
Staphylococcus aureus [7]
  Ratio: 8

## Cn1cc([N+](=O)[O-])cc1C(=O)NNC(=S)Nc1ccc(F)cc1
Escherichia coli [1]
  MIC: 0.39 µg/mL (≈ 1.16 µM)
Klebsiella pneumoniae
  MIC: 1.56 µg/mL (≈ 4.62 µM)
Staphylococcus aureus [2]
  MIC: 0.195 µg/mL (≈ 0.578 µM)
Staphylococcus aureus [3]
  MIC: 0.39 µg/mL (≈ 1.16 µM)
Candida albicans [4]
  MIC: 0.78 µg/mL (≈ 2.31 µM)
[5]
  MIC: 6.7 µg/mL (≈ 19.9 µM)
Vero
  IC50: 662 µM
Escherichia coli [8]
  Ratio: 4
Candida albicans [6]
  Ratio: 4
Staphylococcus aureus [9]
  Ratio: 8
Staphylococcus aureus [7]
  Ratio: 8

## Cn1cc([N+](=O)[O-])cc1C(=O)NNC(=S)Nc1ccccc1F
Escherichia coli [1]
  MIC: 0.39 µg/mL (≈ 1.16 µM)
Klebsiella pneumoniae
  MIC: 1.56 µg/mL (≈ 4.62 µM)
Staphylococcus aureus [2]
  MIC: 0.39 µg/mL (≈ 1.16 µM)
Staphylococcus aureus [3]
  MIC: 0.78 µg/mL (≈ 2.31 µM)
Candida albicans [4]
  MIC: 0.78 µg/mL (≈ 2.31 µM)
[5]
  MIC: 3.2 µg/mL (≈ 9.49 µM)
Vero
  IC50: 293 µM
Escherichia coli [8]
  Ratio: 4
Candida albicans [6]
  Ratio: 4
Staphylococcus aureus [9]
  Ratio: 4
Staphylococcus aureus [7]
  Ratio: 4

## Cn1cc([N+](=O)[O-])cc1C(=O)NNC(=S)Nc1ccc(Cl)cc1
Escherichia coli [1]
  MIC: 0.39 µg/mL (≈ 1.1 µM)
Klebsiella pneumoniae
  MIC: 1.56 µg/mL (≈ 4.41 µM)
Staphylococcus aureus [2]
  MIC: 0.195 µg/mL (≈ 0.551 µM)
Staphylococcus aureus [3]
  MIC: 0.39 µg/mL (≈ 1.1 µM)
Candida albicans [4]
  MIC: 0.78 µg/mL (≈ 2.2 µM)
[5]
  MIC: 16.3 µg/mL (≈ 46.1 µM)
Vero
  IC50: 210 µM
Escherichia coli [8]
  Ratio: 4
Candida albicans [6]
  Ratio: 4
Staphylococcus aureus [9]
  Ratio: 8
Staphylococcus aureus [7]
  Ratio: 8

## Cn1cc([N+](=O)[O-])cc1C(=O)NNC(=S)NC1CCCCC1
Escherichia coli [1]
  MIC: 0.39 µg/mL (≈ 1.2 µM)
Klebsiella pneumoniae
  MIC: 1.56 µg/mL (≈ 4.79 µM)
Staphylococcus aureus [2]
  MIC: 0.39 µg/mL (≈ 1.2 µM)
Staphylococcus aureus [3]
  MIC: 0.78 µg/mL (≈ 2.4 µM)
Candida albicans [4]
  MIC: 0.78 µg/mL (≈ 2.4 µM)
[5]
  MIC: 27.5 µg/mL (≈ 84.5 µM)
Vero
  IC50: 352 µM
Escherichia coli [8]
  Ratio: 4
Candida albicans [6]
  Ratio: 4
Staphylococcus aureus [9]
  Ratio: 4
Staphylococcus aureus [7]
  Ratio: 4

## Cc1ccccc1NC(=S)NNC(=O)c1cc([N+](=O)[O-])cn1C
Escherichia coli [1]
  MIC: 0.39 µg/mL (≈ 1.17 µM)
Klebsiella pneumoniae
  MIC: 1.56 µg/mL (≈ 4.68 µM)
Staphylococcus aureus [2]
  MIC: 0.39 µg/mL (≈ 1.17 µM)
Staphylococcus aureus [3]
  MIC: 0.78 µg/mL (≈ 2.34 µM)
Candida albicans [4]
  MIC: 0.78 µg/mL (≈ 2.34 µM)
[5]
  MIC: 11.9 µg/mL (≈ 35.7 µM)
Vero
  IC50: 471 µM
Escherichia coli [8]
  Ratio: 4
Candida albicans [6]
  Ratio: 4
Staphylococcus aureus [9]
  Ratio: 4

## COc1cc(NC(=S)NNC(=O)c2cc([N+](=O)[O-])cn2C)cc(OC)c1OC
Escherichia coli [1]
  MIC: 0.39 µg/mL (≈ 0.953 µM)
Klebsiella pneumoniae
  MIC: 1.56 µg/mL (≈ 3.81 µM)
Staphylococcus aureus [2]
  MIC: 0.78 µg/mL (≈ 1.91 µM)
Staphylococcus aureus [3]
  MIC: 1.56 µg/mL (≈ 3.81 µM)
Candida albicans [4]
  MIC: 0.78 µg/mL (≈ 1.91 µM)
[5]
  MIC: 21.5 µg/mL (≈ 52.5 µM)
Vero
  IC50: 392 µM
Escherichia coli [8]
  Ratio: 4
Candida albicans [6]
  Ratio: 4
